Laboratory results from US20130281504A1, “Reduction of Microglia-Mediated Neurotoxicity by KCa3.1 Inhibition” (THE REGENTS OF THE UNIVERSITY OF CALIFORNIA, priority 2010, published 2013).

How the values were obtained:
Format in all cases: cell-based, mouse
[1] = system: microglia; assay: Assay for nitric oxide (nitrite) in microglia conditioned medium; settings: for AβO-induced increase of microglia NO production: 5 μM 1400 W, 100 μM L-NIL, FIG. 8A
[2] = system: hippocampal neurons; assay: Indirect neurotoxicity of conditioned medium from AβO-treated microglia on hippocampal neurons; settings: microglia co-treated 24 hrs with 1400 W or L-NIL; 25% CM; FIG. 8B
Protocol: Hippocampal neuronal cultures were prepared from newborn wild type C57BL/6J mice according to the method of Xiang et al (26). Neurons were cultured in NB/B27 at a density of 2.5×10^5 cells/well in 12-well plates or 8×10^5 cells/well in 6-well plates for at least 14 days before they were treated with microglia CM.
Hippocampal neurons were prepared as described above and were plated onto 96-well plate at a density of 6×10^4 cells/well and cultured for 14 days. CM from microglia cultures was added onto neurons with indicated dilutions, and cultures were incubated for 24 hrs.
For immunofluorescent staining of neurons, cultures were fixed in 4% paraformaldehyde and stained with anti-PSD95 (1:200, Cell Signaling), anti-MAP2 (1:500, Chemicon) and anti-acetylated α-tubulin (1:250, Zymed). […] Immunostained images were observed under a Nikon Eclipse E600 microscope and photographed by a digital camera (SPOT RTke, SPOT Diagnostics, Sterling Heights, Mich.).
For quantification of the PSD95-immunoreactive puncta along the dendrites, photomicrographs of PSD95 immunostained cultures were randomly taken from each culture condition. The images were transformed to 8 bit gray scale and analyzed with the Image J program. The number of puncta in each photomicrograph was counted and normalized by dendritic length. The photography and analysis were conducted in an investigator-blinded manner

[3] = system: hippocampal slices; assay: AβO-treated organotypic hippocampal slice cultures; settings: iNOS inhibitors applied 1 hr prior to AβO; for AβO-induced NO production by hippocampal slices: FIG. 8C; for AβO-induced neuronal damage (PI uptake) in hippocampal slices: FIG. 8D
Protocol: Hippocampal slice cultures (400 μm-thick) were prepared from 7-day-old C57BL/6J mice as previously described (25) and cultured for 10 days in vitro before use. Neuronal damage in the slices was monitored by PI uptake following Bernardino et al (27). PI itself is not toxic to neurons (27). […] After 24 hrs, the slices were observed under a Nikon Eclipse E600 microscope and the red (630 nm) fluorescence emitted by PI taken up by damaged cells was photographed by a digital camera (SPOT RTke, SPOT Diagnostics, Sterling Heights, Mich.) with fixed exposure time.
For immunofluorescent staining of neurons, cultures were fixed in 4% paraformaldehyde and stained with anti-PSD95 (1:200, Cell Signaling), anti-MAP2 (1:500, Chemicon) and anti-acetylated α-tubulin (1:250, Zymed). For immunofluorescent staining of microglia, cultures or hippocampal slices were fixed in 4% paraformaldehyde and stained with anti-IBA1 (1:500, Wako Chemicals USA), anti-SRA (E-20, 1:200, Santa Cruz Biotechnology), and anti-CD11b (1:200, AbD Serotec USA, Raleigh, N.C.). The fixed cells or hippocampal slices were incubated with antibodies for overnight at 4° C. followed by secondary Alexa488 conjugated anti-mouse or Alexa568 conjugated anti-rabbit antibody (1:700, Molecular probes). Immunostained images were observed under a Nikon Eclipse E600 microscope and photographed by a digital camera (SPOT RTke, SPOT Diagnostics, Sterling Heights, Mich.).
(§1) To obtain lysates, cells or tissues were washed with ice-cold PBS and incubated with a buffer containing 50 mmol/L Tris-HCl (pH 7.4), 150 mmol/L NaCl, 2% SDS, proteinase inhibitor cocktail (Sigma), and phosphatase inhibitor cocktail (Sigma). Lysates were briefly sonncated and cleared by centrifugation at 50,000 rpm for 10 min. Equivalent amounts of protein were analyzed by Tris/HCL gel electrophoresis. Proteins were transferred to polyvinylidene difluoride membranes and probed with antibodies. Visualization was performed using enhanced chemiluminescence (ECL, Amersham Pharmacia, Piscataway, N.J.).
Conditioned medium collected from microglia cultures (1×10^5/0.75 cm^2) and hippocampal slices treated with Aβ for 24 hrs were analyzed by the Nitric Oxide Quantization Kit according to the protocol of the manufacturer (Active Motif, Carlsbad, Calif.). Data were normalized to the amount of total protein.

[4] = system: microglia; assay: AβO-induced microglia proliferation/activation (cell number); settings: for microglia cell counts, % of solvent-treated controls: mean±S.E
[5] = system: p38MAPK; assay: p38MAPK phosphorylation in microglia (Western blot); settings: AβO, 30 minutes
Protocol: Primary microglia cultures derived from newborn C57BL/6J mice were prepared from mixed glia cultures with the “shaking off” method described by Maezawa, I., et al.; (2006) FASEB J 20, 797-799. […] To obtain conditioned medium (CM) for treating neurons, microglia were first cultured in 24-well culture plates at a density of 1.3×10^5 cells/cm^2 for 24 hrs in DMEM with 10% fetal bovine serum (DMEM10). Cultures were washed extensively and changed to the Neurobasal medium with B27 supplement (NB/B27, Invitrogen) without serum and cultured for another 24 hrs. The NB/B27-based microglia CMs were collected, briefly centrifuged, and used immediately or frozen for future uses.
as §1
The following primary antibodies (dilutions) were used: anti-p38MAPK (1:1000, Cell Signaling Technology, Boston, Mass.), anti-phospho-p38MAPK (1:1000, Cell Signaling Technology), anti-Synaptophysin (1:1000, Abcam), anti-PSD95 (1:1000, cell signaling), anti-GRIP 1 (1:1000, UpState), anti-MAP2 (1:1000, Chemicon), anti-acetylated α-tubulin (1:2000, Zymed), and anti-β-actin (1:3000, Sigma). Secondary antibodies were HRP-conjugated anti-rabbit, anti-goat, or anti-mouse antibody (1:3000 Amersham).

[6] = system: NFκB; assay: NFκB assay in microglia; settings: AβO, 2 hrs
Protocol: The detection of cells with active NFκB was performed according to the method described by Franciosi, S., et al.; (2006) J Neurosci 26, 11652-11664. Briefly, microglia were plated as described above and treated with activators for 2 hrs. Cells were fixed and stained with anti-NF-κBp65 antibody (1:250, Chemicon) and with the nuclear dye DAPI.

[7] = system: hippocampal neurons; assay: Viability of cultured hippocampal neurons, direct AβO; settings: direct addition

With CC(=N)NCc1cccc(CN)c1 [1400 W, N-[(3-aminomethyl)benzyl]acetamidine, reference compound] the “AβO-induced increase of microglia NO production” value [1] was “prevented”, the “AβO-induced microglial neurotoxicity (neuronal viability)” value [2] was “blocked” and the “AβO-induced NO production by hippocampal slices” value [3] was “blocked”. For the same molecule, the “AβO-induced neuronal damage (PI uptake) in hippocampal slices” value [3] was “blocked”.
Nc1c(/N=N/c2ccc(-c3ccc(/N=N/c4cc(S(=O)(=O)O)c5ccccc5c4N)cc3)cc2)cc(S(=O)(=O)O)c2ccccc12 [Congo red, reference compound] was tested, and the “AβO mitogenic effect on microglia (cell numbers)” value ([4]; 20 nM AβO, 24 hrs, A11 50 nM, CR 100 nM, FIG. 1D) was “blocked” and the “microglia activation / mitogenic effect induced by human brain AβO” value ([4]; soluble AD hippocampus extracts) was “blocked”.
In the case of CC(=N)NCCCC[C@H](N)C(=O)O [L-NIL, N-iminoethyl-Llysine, reference compound], the “AβO-induced increase of microglia NO production” value [1] is reported as “prevented”, the “AβO-induced microglial neurotoxicity (neuronal viability)” value [2] is reported as “blocked” and the “AβO-induced NO production by hippocampal slices” value [3] is reported as “blocked”. The “AβO-induced neuronal damage (PI uptake) in hippocampal slices” value [3] was “blocked”.
For “AβO: synthetic Aβ42 peptide oligomers, microglia activator”, the “AβO concentration at which microglia proliferation maximizes” value [4] was “around 50 nM”, the “AβO concentration at which microglia proliferation starts” value [4] was 5 nM and the “microglia cell counts, % of solvent-treated controls” value ([4]; 20 nM AβO, 24 hr) was 184±8.59%. For the same molecule, the “microglia cell counts, % of solvent-treated controls” value ([4]; 20 nM AβO, 48 hr) was 330±21.8%, the “phosphorylated p38MAPK, % of vehicle treatment control” value [5] was 225±38% and the “increase of cells with active NFκB immunoreactivity” value [6] was “six-fold increase”. For the same molecule, the “increase of NO release per cell” value ([1]; AβO 24 hr, normalized to total cellular protein) was ~80% and the “AβO concentrations affecting viability of cultured hippocampal neurons” value [7] was “above 100 nM”.
With “polyinosinic acid [poly I, reference compound]” the “AβO-induced microglia activation / proliferation” value ([4]; 20 nM AβO 24 hrs, 100 ng/ml poly I, 10 μg/ml E-20, 20 μM doxycycline, 1 μM TRAM-34, FIG. 3) was “blocked”.
